Laboratory results as given in US20230172944A1, “ROCK INHIBITORS FOR USE IN TREATING OR PREVENTING PULMONARY EDEMA” (ATRIVA THERAPEUTICS GMBH, priority 2020, published 2023).

How the values were obtained:
[1] = system: Calu3 cells infected with influenza virus A/Puerto Rico/8/34 (H1N1); test: Antibody staining and confocal laser-scanning microscopy of apical NKA localization; assay type: cell-based, human; conditions: PR8-infected Calu3 cells treated with ROCK inhibitor, 20 h p.i.
Protocol: In order to obtain highly polarized Calu3 cells, the cell monolayer in a 175 cm^2 tissue culture flask grown to 50% confluence was washed once with PBS −/− and treated with Trypsin-EDTA. Cells were resuspended in 10 ml culture medium and centrifuged for 15 min at 300×g, 24° C. Supernatant was discarded and cells were resuspended in 5 ml of culture medium. 30 μl of cell suspension were mixed with 30 μl of 0.4% trypan blue dye and cell concentration was calculated in Neubauer chamber according manufacturer's instruction. Cells were dilute to a concentration of 2×10^6 viable cells/ml in Calu3 culture medium and 250 μl/125 μl of the cell suspension containing 0.5×10^6/0.25×10^6 viable cells were placed to the apical compartment of each Transwells® insert in a 12/24 well plate. 1/0.3 ml of Calu-3 culture medium was added into the basolateral compartments, avoiding the introduction of air bubbles and cells were cultivated at 37° C., 5% CO2. For the cells grown under the Liquid-Liquid Interface (LLI) condition, medium was replaced in both compartments each second day. For Air-Liquid Interface (ALI), culture medium was aspirated from the apical compartment on the day two, whereas medium was replaced every 2 days in the basolateral compartments.
For immunofluorescence assay cells were washed ones with PBS+/+ and fixed with or without extra permeabilization at the indicated time points. […]

[2] = system: Calu3 cells infected with influenza virus A/Puerto Rico/8/34; test: Coomassie staining of confluent polarized Calu3 cells (virus-induced epithelial cell damage); assay type: cell-based; conditions: 5 μM, MOI=5, Coomassie 24 h p.i.
[3] = system: polarized Calu3 cells infected with influenza virus A/Puerto Rico/8/34 (H1N1); test: Vectorial water transport (FITC-dextran) over polarized Calu3 cells; assay type: cell-based, human
[4] = system: IAV A/Puerto Rico/8/32 (H1N1); test: Virus titer of lung homogenizates (foci assay); assay type: in vivo, mice; conditions: 10 mg/kg 1×daily for 6 days, 500 PFU/mouse, 7th day p.i., n=3
Protocol: PR8: Virus titer of lung homogenizates from mice infected with IAV A/Puerto Rico/8/32 (H1N1, 500 PFU/Mouse) were infected (7th day p.i.).
For the foci forming assay, MDCK II cells were seeded in 96-well plates at a concentration of 3×10^6 cells/plate. The next day, 10-fold dilutions in duplicates (from 10^−1 to 10^−8) in PBS+/+/BA/PS was prepared from each virus sample in U-shaped 96-well. Importantly, during the preparation of the dilutions the pipet tips were changed after each dilution step. The MDCK II cells in the 96-well plate(s) were washed once with PBS+/+. […] 1 hour later, cells again were washed with 400 μl of washing buffer and 40 μl 3-Amino-9-ethylcarbazole (AEC)-staining buffer (1×AEC diluted N—N-dimethylformamide in acetate buffer (50 mM ammonium acetate, 8.8 mM H202) were added to each well. Following incubation for 30 min at 37° C. until foci could be detected, the staining buffer was removed and cells were washed twice with dH2O. Air-dried plates were scanned by using the Epson Perfection V500 Photo scan (Epson) at 1200 dpi and total number of foci was determined per well. Since Avicel-medium has a high viscosity that prevents diffusion of virus particles in surrounding media, virus can spread only from one cell to other forming foci. […]

[5] = system: IAV A/Puerto Rico/8/32 (H1N1); test: Body weight of infected mice; assay type: in vivo, C57BL/6 mice; conditions: 10 mg/kg 1×daily in saline solution, 500 PFU/mouse, 7 days
Protocol: PR8: Body weight of mice infected with IAV A/Puerto Rico/8/32 (H1N1, 500 PFU/mouse). […] The experiment was planned for 7 days only. Afterwards the mice were euthanized for ethical reasons.
All animal experiments were performed according to the latest guidelines of the “Federation of European Laboratory Animal Science Associations (FELASA)” and approved by the local committee of the Max-Planck Laboratory for Heart & Lung Research Instituto de Investigación en Biomedicina de Buenos Aires (IBioBA). Six-week-old BALB/c mice (n=5 per group) were infected by intra-tracheal inoculation of 500 plaque-forming units (pfu)/mouse of PR8 in a volume of 30 μl. […] As a control IP injection of sterile PBS −/− were applied. Body weight was monitored every day until day 8 p.i.. On the day 7 after treatment start (=day 8 p.i.) mice were sacrificed by an overdose of isoflurane.

[6] = system: IAV A/Puerto Rico/8/32 (H1N1); test: Lung histology (Hematoxilin/Eosin) and nuclear count quantification of infiltrates; assay type: in vivo; conditions: 10 mg/kg 1×daily for 6 days, 5 mice, 7th day p.i., Aperio nuclear count

O=C(NCc1cccc(O)c1)Nc1nc(-c2ccncc2)cs1 [Rho XIII, 1-(3-Hydroxybenzyl)-3-(4-(pyridin-4-yl)thiazol-2-yl)urea]
cell viability of infected Calu3 cells (Calu3 cells): increases cell viability
cell viability of non-infected Calu3 cells (Calu3 cells; 5 μM, 0, 6, 16, 24 hours, mock set to 100%): increases cell viability
apical sodium-potassium-ATPase (NKA) localization [1]: prevents apical sodium-potassium-ATPase (NKA) localization
virus-induced epithelial cell damage (cytopathic effect) [2]: reduces virus-induced epithelial cell damage in vitro
vectorial water transport (VWT) [3]: improves vectorial water transport

Cl.O=S(=O)(c1cccc2cnccc12)N1CCCNCC1 [Fasudil HCl, Isoquinoline 5-[(hexahydro-1H-1,4-diazepin-1-yl)sulfonyl]-N-(5-Isoquinolinesulfonyl)-1,4-per-hydrodiazepine]
virus titer in the lungs of infected mice [4]: reduces the virus titer in the lungs of infected mice
body weight loss of infected mice [5]: tendential reduction of the body weight loss
number of infiltrates (quantification, total cell count/mm2) [6]: reduces the number of infiltrates
